One may read the IC50 as the concentration at which inhibition is half-maximal.

Consider 25 compounds from patent US20080176862A1, “New Compounds 617” (ASTRAZENECA AB, priority 2006, published 2008).

Each structure is given as a SMILES string. Counter-ions that a name gives are not always drawn.

The assay deals with T1, human β-Secretase (soluble part, AA1-AA460; sBACE-Fc) (Homo sapiens, UniProt P56817).
T1 construct: The soluble part of the human β-Secretase (AA1-AA460) was cloned into the ASP2-Fc10-1-IRES-GFP-neoK mammalian expression vector; made in house
T1 sequence (P56817 22-460): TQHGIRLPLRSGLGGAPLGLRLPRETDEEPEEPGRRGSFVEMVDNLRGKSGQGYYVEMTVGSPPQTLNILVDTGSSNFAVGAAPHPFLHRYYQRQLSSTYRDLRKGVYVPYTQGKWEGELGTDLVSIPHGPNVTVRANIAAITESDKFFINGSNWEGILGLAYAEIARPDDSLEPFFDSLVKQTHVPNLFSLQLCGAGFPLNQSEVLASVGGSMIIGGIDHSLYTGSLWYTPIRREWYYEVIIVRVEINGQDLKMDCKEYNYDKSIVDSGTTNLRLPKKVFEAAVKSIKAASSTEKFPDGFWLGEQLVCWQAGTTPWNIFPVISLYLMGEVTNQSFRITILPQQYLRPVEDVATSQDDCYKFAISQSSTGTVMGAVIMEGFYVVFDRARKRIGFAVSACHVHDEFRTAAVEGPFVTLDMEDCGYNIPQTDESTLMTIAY
Briefly: TR-FRET assay. The assay is classed as biochemical. To be noted: substrate (Europium)CEVNLDAEFK(Qsy7) 100 nM, pH 4.5, 15 min at RT; read-out: IC50 (nM) in TR-FRET assay. The procedure:
The enzyme used in the IGEN Cleavage-, Fluorescent-, TR-FRET- and BiaCore assays is described as follows:
The soluble part of the human β-Secretase (AA1-AA460) was cloned into the ASP2-Fc10-1-IRES-GFP-neoK mammalian expression vector. The gene was fused to the Fc domain of IgG1 (affinity tag) and stably cloned into HEK 293 cells. Purified sBACE-Fc is stored in Tris buffer, pH 9.2 and has a purity of 95%.
Enzyme was diluted to 6 μg/mL and the substrate (Europium)[…](Qsy7) to 200 nM in reaction buffer (NaAcetate, chaps, triton x-100, EDTA pH 4.5). Compounds were diluted to the desired concentration in dimethyl sulfoxide (final dimethyl sulfoxide concentration in assay is 5%). […] Enzyme (9 μL) and 1 μL of compound in dimethyl sulfoxide was added to the plate, mixed and pre-incubated for 10 min. Substrate (10 μL) was added and the reaction proceeded in the dark for 15 min at RT. The reaction was stopped with the addition of 7 μL NaAcetate, pH 9. The fluorescence of the product was measured on a Victor II plate reader with an excitation wavelength of 340 nm and an emission wavelength of 615 nm. […] The dimethyl sulfoxide control defined the 100% activity level and 0% activity was defined by exclusion of the enzyme (using reaction buffer instead).
(In general: Time-resolved FRET reads energy transfer from a long-lived donor to a nearby acceptor.)
Turning to `CCCS(=O)(=O)Oc1cccc(C2(c3ccc(F)c(-c4cccnc4)c3)N=C(N)N(C)C2=O)c1` (stereo not shown) [Example 97, 3-[2-Amino-4-(4-fluoro-3-pyridin-3-ylphenyl)-1-methyl-5-oxo-4,5-dihydro-1H-imidazol-4-yl]phenylpropane-1-sulfonate], the IC50 is 236 nM.

Take `COc1ccc(C#N)c(-c2cc(C3(c4cccc(OS(C)(=O)=O)c4)N=C(N)N(C)C3=O)ccc2F)c1` (stereo not shown) [Example 177, 3-[2-Amino-4-(2′-cyano-6-fluoro-5′-methoxybiphenyl-3-yl)-1-methyl-5-oxo-4,5-dihydro-1H-imidazol-4-yl]phenyl methanesulfonate hydrochloride]: the IC50 was found to be 100 nM.

`COc1cncc(-c2cc(C3(c4ccc(OS(=O)(=O)C(F)(F)F)cc4)N=C(N)N(C)C3=O)ccc2F)c1` (stereo not shown) [Example 148, 4-{2-Amino-4-[4-fluoro-3-(5-methoxypyridin-3-yl)phenyl]-1-methyl-5-oxo-4,5-dihydro-1H-imidazol-4-yl}phenyl trifluoromethanesulfonate 0.5 acetate]: the IC50 was determined as 40 nM.

As for `CN1C(=O)C(c2ccc(OC(F)F)cc2)(c2ccc(F)c(-c3cncc(OS(C)(=O)=O)c3)c2)N=C1N` (stereo not shown) [Example 73, 5-(5-{2-Amino-4-[4-(difluoromethoxy)phenyl]-1-methyl-5-oxo-4,5-dihydro-1H-imidazol-4-yl}-2-fluorophenyl)pyridin-3-yl methanesulfonate hydrochloride], the IC50 worked out at 54 nM.

On to `CN1C(=O)C(c2cccc(OS(=O)(=O)c3cn(C)cn3)c2)(c2ccc(F)c(Br)c2)N=C1N` (stereo not shown) [Example 232, 3-[2-Amino-4-(3-bromo-4-fluorophenyl)-1-methyl-5-oxo-4,5-dihydro-1H-imidazol-4-yl]phenyl 1-methyl-1H-imidazole-4-sulfonate], for which the IC50 is 594 nM.

For the compound `COc1ccc(OC)c(S(=O)(=O)Oc2ccc(C3(c4ccc(F)c(-c5cncnc5)c4)N=C(N)N(C)C3=O)cc2)c1` (stereo not shown) [Example 277, 4-[2-Amino-4-(4-fluoro-3-pyrimidin-5-ylphenyl)-1-methyl-5-oxo-4,5-dihydro-1H-imidazol-4-yl]phenyl 2,5-dimethoxybenzenesulfonate], the IC50 was found to be 183 nM.

For `Cc1cc(C2(c3cccc(-c4cc(Cl)cc(OS(C)(=O)=O)c4)c3)N=C(N)N(C)C2=O)cc(C)n1` (stereo not shown) [Example 306, 3′-(2-Amino-4-(2,6-dimethylpyridin-4-yl)-1-methyl-5-oxo-4,5-dihydro-1H-imidazo-4-yl)-5-chlorobiphenyl-3-yl methanesulfonate hydrochloride], the IC50 came out at 89 nM.

`COc1ccc(OC)c(S(=O)(=O)Oc2cccc(C3(c4ccc(F)c(-c5cncnc5)c4)N=C(N)N(C)C3=O)c2)c1` (stereo not shown) [Example 235, 3-[2-Amino-4-(4-fluoro-3-pyrimidin-5-ylphenyl)-1-methyl-5-oxo-4,5-dihydro-1H-imidazol-4-yl]phenyl 2,5-dimethoxybenzenesulfonate]: the IC50 stood at 589 nM.

For the compound `CN1C(=O)C(c2ccc(OC(F)F)cc2)(c2cccc(-c3cc(Cl)cc(OS(C)(=O)=O)c3)c2)N=C1N` (stereo not shown) [Example 64, 3′-{2-Amino-4-[4-(difluoromethoxy)phenyl]-1-methyl-5-oxo-4,5-dihydro-1H-imidazol-4-yl}-5-chlorobiphenyl-3-ylmethanesulfonate], the IC50 turned out to be 28 nM.

For `CN1C(=O)C(c2cccc(OS(=O)(=O)c3c(F)cccc3F)c2)(c2ccc(F)c(Br)c2)N=C1N` (stereo not shown) [Example 225, 3-[2-Amino-4-(3-bromo-4-fluorophenyl)-1-methyl-5-oxo-4,5-dihydro-1H-imidazol-4-yl]phenyl 2,6-difluorobenzenesulfonate], the IC50 was determined as 633 nM.

Consider `CN1C(=O)C(c2cccc(OS(=O)(=O)N(C)C)c2)(c2ccc(F)c(-c3cccnc3)c2)N=C1N` (stereo not shown) [Example 111, 3-[2-Amino-4-(4-fluoro-3-pyridin-3-ylphenyl)-1-methyl-5-oxo-4,5-dihydro-1H-imidazol-4-yl]phenyldimethylsulfamate], for which the IC50 is 93 nM.

With `CCCS(=O)(=O)Oc1cccc(C2(c3ccc(F)c(-c4cncnc4)c3)N=C(N)N(C)C2=O)c1` (stereo not shown) [Example 102, 3-[2-Amino-4-(4-fluoro-3-pyrimidin-5-ylphenyl)-1-methyl-5-oxo-4,5-dihydro-1H-imidazol-4-yl]phenyl propane-1-sulfonate], the IC50 is 321 nM.

On to `CCCS(=O)(=O)Oc1cccc(C2(c3ccc(F)c(-c4cc(Cl)cc(OC)c4)c3)N=C(N)N(C)C2=O)c1` (stereo not shown) [Example 99, 3-[2-Amino-4-(3′-chloro-6-fluoro-5′-methoxybiphenyl-3-yl)-1-methyl-5-oxo-4,5-dihydro-1H-imidazol-4-yl]phenyl propane-1-sulfonate], for which the IC50 came to 330 nM.

As to `CC(C)S(=O)(=O)Oc1cccc(C2(c3ccc(F)c(-c4cccnc4)c3)N=C(N)N(C)C2=O)c1` (stereo not shown) [Example 105, 3-[2-Amino-4-(4-fluoro-3-pyridin-3-ylphenyl)-1-methyl-5-oxo-4,5-dihydro-1H-imidazol-4-yl]phenylpropane-2-sulfonate], the IC50 was found to be 343 nM.

For `CN1C(=O)C(c2ccc(OS(C)(=O)=O)cc2)(c2ccc(F)c(C3CCCCC3)c2)N=C1N` (stereo not shown) [Example 300, 4-[2-Amino-4-(3-cyclohexyl-4-fluorophenyl)-1-methyl-5-oxo-4,5-dihydro-1H-imidazol-4-yl]phenyl methanesulfonate 0.5 acetate], the IC50 turned out to be 410 nM.

In the case of `COc1cc(OS(C)(=O)=O)cc(-c2cccc(C3(c4ccc(OC)c(C)c4)N=C(N)N(C)C3=O)c2)c1` (stereo not shown) [Example 62, 3′-[2-Amino-4-(4-methoxy-3-methylphenyl)-1-methyl-5-oxo-4,5-dihydro-1H-imidazol-4-yl]-5-methoxybiphenyl-3-ylmethanesulfonate 0.25acetate], the IC50 was found to be 25 nM.

As to `CN1C(=O)C(c2cccc(OS(=O)(=O)c3ccc4c(c3)CCC4)c2)(c2ccc(F)c(-c3cccnc3)c2)N=C1N` (stereo not shown) [Example 283, 3-[2-Amino-4-(4-fluoro-3-pyridin-3-ylphenyl)-1-methyl-5-oxo-4,5-dihydro-1H-imidazol-4-yl]phenyl indane-5-sulfonate 0.25 acetate], the IC50 was determined as 30 nM.

As for `COc1cc(Cl)cc(-c2cc(C3(c4cccc(OS(C)(=O)=O)c4)N=C(N)N(C)C3=O)ccc2F)c1` (stereo not shown) [Example 92, 3-[2-Amino-4-(3′-chloro-6-fluoro-5′-methoxybiphenyl-3-yl)-1-methyl-5-oxo-4,5-dihydro-1H-imidazol-4-yl]phenyl methanesulfonate], the IC50 is 179 nM.

With `CN1C(=O)C(c2ccc(OS(C)(=O)=O)cc2)(c2ccc(F)c(/C=C/C3CC3)c2)N=C1N` (stereo not shown) [Example 78, 4-(2-Amino-4-{3-[(E)-2-cyclopropylvinyl]-4-fluorophenyl}-1-methyl-5-oxo-4,5-dihydro-1H-imidazol-4-yl)phenyl methanesulfonate], the IC50 is 725 nM.

Consider `COc1cccc(-c2ccnc(C3(c4ccc(OS(=O)(=O)C(F)(F)F)cc4)N=C(N)N(C)C3=O)c2)c1` (stereo not shown) [Example 298, 4-{2-Amino-4-[4-(3-methoxyphenyl)pyridin-2-yl]-1-methyl-5-oxo-4,5-dihydro-1H-imidazol-4-yl}phenyl trifluoromethanesulfonate 0.5 acetate], for which the IC50 came to 874 nM.

For the compound `CN1C(=O)C(c2ccc(OS(=O)(=O)C(F)(F)F)cc2)(c2ccc(F)c(-c3cncc(C#N)c3)c2)N=C1N` (stereo not shown) [Example 144, 4-{2-Amino-4-[3-(5-cyanopyridin-3-yl)-4-fluorophenyl]-1-methyl-5-oxo-4,5-dihydro-1H-imidazol-4-yl}phenyl trifluoromethanesulfonate 0.5 acetate], the IC50 was found to be 321 nM.

In the case of `COc1ccc(S(=O)(=O)Oc2ccc(C3(c4ccc(F)c(-c5cncnc5)c4)N=C(N)N(C)C3=O)cc2)cc1` (stereo not shown) [Example 279, 4-[2-amino-4-(4-fluoro-3-pyrimidin-5-ylphenyl)-1-methyl-5-oxo-4,5-dihydro-1H-imidazol-4-yl]phenyl 4-methoxybenzenesulfonate], the IC50 was found to be 23 nM.

In the case of `CN1C(=O)C(c2cccc(OS(C)(=O)=O)c2)(c2ccc(F)c(C3=CCCC3)c2)N=C1N` (stereo not shown) [Example 194, 3-[2-Amino-4-(3-cyclopent-1-en-1-yl-4-fluorophenyl)-1-methyl-5-oxo-4,5-dihydro-1H-imidazol-4-yl]phenyl methanesulfonate hydrochloride], the IC50 was found to be 284 nM.

For `COc1cc(OS(C)(=O)=O)cc(-c2cc(C3(C4CCOCC4)N=C(N)N(C)C3=O)ccc2F)c1` (stereo not shown) [Example 192, 5′-[2-Amino-1-methyl-5-oxo-4-(tetrahydro-2H-pyran-4-yl)-4,5-dihydro-1H-imidazol-4-yl]-2′-fluoro-5-methoxybiphenyl-3-yl methanesulfonate hydrochloride], the IC50 is 1260 nM.

Turning to `CN1C(=O)C(c2cccc(OS(=O)(=O)c3ccc(Cl)s3)c2)(c2ccc(F)c(-c3cncnc3)c2)N=C1N` (stereo not shown) [Example 242, 3-[2-Amino-4-(4-fluoro-3-pyrimidin-5-ylphenyl)-1-methyl-5-oxo-4,5-dihydro-1H-imidazol-4-yl]phenyl-5-chlorothiophene-2-sulfonate], the IC50 came out at 31 nM.
